According to US20230390386A1, “REPLICATION-DEFECTIVE VACCINES AND USES THEREOF” (priority 2020, published 2023):

Legend:
HSV-2 GFP = HSV-2 GFP fluorescence imaging and growth curve (plaque assay) in ARPE-19 cells after CM treatment; format: cell-based, human simplex virus-2; settings: for HSV-2-GFP infection and growth: ARPE-19 cells
Description: Human Simplex Virus (HSV) treatment with CM: The ARPE-19 (ATCC CRL-2302) cells were grown in 12 well plate in DMEM with 10% FBS and 1% P/S. […] were treated with different concentration of centanamycin (100 μM, 10 μM, 1μM, 0.1 μM, and 0.01 μM) for two hours at room temperature. The CM treated HSV were washed 3 times with cDMEM after treatment to remove CM and added to the ARPE-19 cells in triplicate at an MOI of 0.2. The HSV viruses were collected at 6, 12, 18, 24, 30, 36, and 42 hours of post-infection. The virus titer was determined by plaque assays using ARPE-19 cells.
In this study, the HSV-2 GFP was treated with the different concentrations of CM ranging from 100 μM to 0.01 μM (10-fold serial dilution at each concentration) and determined the growth curve using plaque assay (FIG. 2B). […] A 10 μM CM treatment of HSV-2-GFP leads to the virus attenuation and the virus was not able to spread to adjacent cells (FIG. 2A). […] The virus treatment with 1 μM CM lead to viral infection in host cells and extremely slowly spread to neighbor cells (FIG. 2A).

VZV-Luc [1] = test: Cell-free VZV-Luc growth curve in ARPE-19 cells after CM treatment; format: cell-based, varicella zoster virus; settings: for VZV-Luc growth and spread: two hours at RT, ARPE-19 cells
Description: Cell-free Varicella-zoster virus (VZV) treatment with the CM: VZV is a cell-associated virus. The efficacy of CM on VZV was checked using growth curve analysis. VZV-GFP-Luc was used to check the effect of CM on the virus. The ARPE-19 cells were seeded in 6-well plate and maintained at 37° C. and 5% CO2. The cell-free virus was treated with different concentration of CM (centanamycin (100 μM, 10 μM, and 0.1 μM) for two hours at RT and washed with three times with cDMEM prior to adding to the cells. The virus load in the infected cells was determined by adding luciferin substrate and measuring relative luciferase units every 24 hours of post-infection. The control included the cells infected with the virus without CM treatment. Viability of infected cells was quantified using the Cell Counting Kit-8 (Sigma# 96992) according to the manufacturers protocol.
Subsequent studies then evaluated the effect of CM treatment on the replication and growth of human alphaherpesvirus-3, also known as varicella zoster virus (VZV), under in vitro conditions in human epithelial ARPE-19 cells. The VZV is a highly cell associated virus and it is transmitted by cell-cell spread. The cell-free, luciferase-expressing VZV-Luc was treated with different concentration of CM (100 μM, 10 μM, 1.0 μM, and 0.1 μM) for two hours at RT. After two hours, the virus was added to the ARPE-19 cells. […] As compared to the CMV which can be attenuated with 1 μM CM, VZV is attenuated with 10 μM CM and this is because VZV is a cell associated virus and CM needs to cross the cell membrane to bind the virus and completely attenuates the VZV.

HCMV gDNA = test: Analysis of CM-treated viral gDNA (agarose gel, EcoR1 digestion, 50° C. incubation); set-up: species or system human cytomegalovirus
Description: Analysis of CM and viral gDNA: To see any effect of CM on the HCMV gDNA, the gDNA was analyzed by agarose gel electrophoresis, restriction digestion, and thermal incubation at 50° C. The HCMV was grown in ARPE-19 cells and virus particles were purified through sucrose gradient using ultracentrifugation. HCMV gDNA was extracted and concentration was determined by OD at 260/280. Approximately, 10 μg of HCMV gDNA was incubated with 10 μM CM at RT for 1 hour and 10 μg of HCMV gDNA was treated with vehicle control without CM. The treated gDNA was analyzed by the agarose gel electrophoresis to see any effect of CM on the HCMV gDNA. In a separate experiment, the […] treated HCMV gDNA was incubated at 50° C. for 30 minutes to check the alkylation of DNA is thermolabile or not. Untreated HCMV gDNA was also treated similarly. In another, 3 μg of CM treated and untreated HCMV gDNA was digested with EcoR1 overnight at 37° C. and analyzed by 0.6% agarose gel electrophoresis.
To understand the mechanism behind CM mediated attenuation of the virus, CM-treated viral gDNA was analyzed using agarose gel electrophoresis, restriction digestion, and heat-labile fragmentation assays. The AD169 viral gDNA was treated with 1 μM CM for two hours at RT and then separated with a 0.6% agarose gel. Untreated AD169 viral gDNA was used as a control. […] To further understand the effect of CM on the viruses, viral gDNA was isolated and treated with CM for two hours at RT followed by digestion with the restriction enzymes EcoR1. […] However, the CM treated viruses were alkylated efficiently as compared to the control which was observed by the DNA fragmentation during incubation at 50° C. while control untreated viruses have intact DNA (FIG. 3C).

VZV-Luc [2] = test: CM treated VZV-Luc growth in human fetal skin implants of SCID-hu mouse model; format: in vivo; settings: for VZV growth in implanted skin tissues: 10^3 PFU, 12 days
Description: SCID mice of arbitrary sex, 6-8 weeks old were used to produce the SCID-hu mouse model by implanting human fetal skin under the mouse skin as described previously to study the therapeutic efficacy of CM on the VZV replication and attenuation. The human fetal skin tissues were acquired from Advance Biosciences Resources (Alameda, CA) and processed as described previously (Selariu, Anca et al. “ORF7 of varicella-zoster virus is a neurotropic factor.” Journal of virology vol. 86, 16 (2012): 8614-24.). The VZV-Luc was treated with CM of 10.0 μM, and 1.0 μM followed by washing with DMEM media to remove CM. The acyclovir (30 mg/kg) was used as a positive control. VZV-Luc treated with drug vehicle was used as a mock. The viral load was determined every 48 hours as total photon counts in the infected implanted tissues. The total photon counts were determined using IVIS imaging of infected animals as represented in FIGS. 10A and 10B. The image of one mouse from each group is shown in FIG. 10B after 12 days of post-treatment. Four weeks after implantation, the implanted human tissues were surgically exposed and inoculated with 10^3 PFU of VZV-Luc. Luciferase activity within the implants was measured every 48 h for 12 days using the IVIS200 imaging system and Live Image software.

[3] = VZV-Luc treated with 10.0 μM CM

**Q.** `COc1cc2cc(C(=O)Nc3cc(N)c4ccccc4c3CCCl)[nH]c2c(OC)c1OC` [CM, centanamycin] was tested. Which “CM concentration needed to produce replication-defective HSV-2” value (HSV-2 GFP) did it give?
**A.** The value was 1 µM.

**Q.** What about the “HSV-2-GFP infection and growth” value (HSV-2 GFP; virus treated with 1.0 μM CM) of the same compound?
**A.** Its value is “slower growth as compared to untreated”.

**Q.** What about the “HSV-2-GFP infection and growth” value (HSV-2 GFP; virus treated with 10 μM CM) of the same compound?
**A.** The value was “able to infect the cells but not replicate”.

**Q.** And the “HSV-2-GFP infection and growth” value (HSV-2 GFP; virus treated with 100 μM CM)?
**A.** Its value is “completely inhibits the virus infection”.

**Q.** What about the “CM concentration that attenuates VZV” value (VZV-Luc [1]) of the same compound?
**A.** Its value is 10 µM.

**Q.** What about the “VZV-Luc growth and spread” value (VZV-Luc [1]; cell-free virus treated with 0.1 μM CM) of the same compound?
**A.** The value was “infect as well as spread to the adjacent cells but with reduced growth”.

**Q.** And the “VZV-Luc growth and spread” value (VZV-Luc [1]; cell-free virus treated with 1.0 μM CM)?
**A.** The value was “infect as well as spread to the adjacent cells but with reduced growth”.

**Q.** And the “VZV-Luc growth and spread” value (VZV-Luc [1]; cell-free virus treated with 10.0 μM CM)?
**A.** The value was “allowed the virus to infect the cells but not to spread to the adjacent cells”.

**Q.** What about the “VZV-Luc growth and spread” value (VZV-Luc [1]; cell-free virus treated with 100 μM CM) of the same compound?
**A.** Its value is “completely inhibit the growth as well as replication”.

**Q.** What about the “Viral gDNA bands on 0.6% agarose gel, treated versus untreated” value (HCMV gDNA; AD169 viral gDNA, 1 μM CM, two hours at RT) of the same compound?
**A.** Its value is “no big differences in the viral gDNA bands, mobility, and gel pattern”.

**Q.** What about the “EcoR1 digestion pattern of CM treated viral gDNA” value (HCMV gDNA; CM two hours at RT, then EcoR1) of the same compound?
**A.** The value was “no major missing bands”.

**Q.** What about the “Thermolabile alkylation: state of CM treated viral DNA on incubation at 50° C.” value (HCMV gDNA; incubation at 50° C.) of the same compound?
**A.** Its value is “experienced fragmentation at 50 °C”.

**Q.** And the “VZV growth in implanted skin tissues” value (VZV-Luc [2]; VZV-Luc treated with 1.0 μM CM)?
**A.** Its value is “growing very slowly and have growth defects”.

**Q.** And the “Luciferase activity (viral load) in implanted tissues” value (VZV-Luc [2]; [3])?
**A.** The value was “no luciferase activity in implanted tissues”.

**Q.** And the “VZV growth in implanted skin tissues” value (VZV-Luc [2]; [3])?
**A.** The value was “did not grow in skin implants”.
